The record followed here is patent US10183032B2, “Methods for treating bacterial infection” (Ball State Innovation Corporation, priority 2012, dated 2019).

This assay relates to vinculin-containing adhesion complexes. Put plainly: Vinculin-containing adhesion complexes in HUVEC. It is filed as cell-based, human. The settings on record: ML 141 10 μM, 18-20 h, vehicle control 64%. Here is the method:
FIG. 10A is an image depicting ML 141 inhibition of CDC42 limiting the formation of adhesion complexes. Human umbilical vein endothelial cells (HUVEC) were incubated (18-20 h) with the vehicle control dimethyl sulfoxide (DMSO) or with ML 141 (10 μM). Pretreated HUVEC were fixed, permeabilized, blocked, and stained with anti-vinculin followed by anti-mouse Alexa Fluor 488. Arrows indicate vinculin-containing complexes. Data are presented as the % of cells where vinculin-containing adhesion complexes were detected. 100-200 cells/treatment were evaluated from randomly selected fields (p<0.001 by χ^2). Scale bar 50 μm.

For `COc1ccc(C2CC(c3ccccc3)=NN2c2ccc(S(N)(=O)=O)cc2)cc1` (stereo not shown) [ML 141, 4-[3-(4-methoxyphenyl)-5-phenyl-3,4-dihydropyrazol-2-yl]benzenesulfonamide], the “% of cells with vinculin-containing adhesion complexes” value stood at 37%.
